The source made the active and inactive calls. No cut-off for these calls is given here.

For assay [1], the system named is Mus musculus. In words: Effect on uterine weight in ovariectomized C57B16 mouse at 0.1 to 2.4 nM, sc. As to conditions: Uterus. In kind it is functional, organism-based.
In assay [2] the target is T1, Estrogen receptor (Homo sapiens) (UniProt P03372).
T1 sequence (whole entry): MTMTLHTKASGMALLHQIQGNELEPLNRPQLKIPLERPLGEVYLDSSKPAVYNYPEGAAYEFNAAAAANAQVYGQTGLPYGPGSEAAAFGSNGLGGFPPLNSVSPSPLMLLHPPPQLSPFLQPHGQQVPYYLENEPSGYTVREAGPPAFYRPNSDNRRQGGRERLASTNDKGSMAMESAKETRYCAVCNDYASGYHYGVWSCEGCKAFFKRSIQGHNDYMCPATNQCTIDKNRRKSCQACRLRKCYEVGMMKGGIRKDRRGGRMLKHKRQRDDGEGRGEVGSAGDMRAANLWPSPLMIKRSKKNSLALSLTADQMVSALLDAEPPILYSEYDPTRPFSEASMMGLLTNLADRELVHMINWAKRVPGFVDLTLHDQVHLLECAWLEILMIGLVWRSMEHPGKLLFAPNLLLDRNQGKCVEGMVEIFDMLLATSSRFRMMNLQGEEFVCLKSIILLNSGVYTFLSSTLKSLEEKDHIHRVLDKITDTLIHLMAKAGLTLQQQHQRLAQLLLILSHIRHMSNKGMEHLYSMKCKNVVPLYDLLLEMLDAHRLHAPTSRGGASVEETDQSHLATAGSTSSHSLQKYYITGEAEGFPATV
Briefly: Antagonist activity in ERalpha-transfected COS7 cells assessed as inhibition of E2-mediated PI(3)K activation. Particulars: COS-7. In kind it is functional, cell-based.

The subject of assay [3] is Mus musculus. Briefly: Effect on uterine weight in ovariectomized C57B16 mouse at 2.4 to 27 nM, sc. In kind it is functional, organism-based. Particulars: Uterus.
Assay [4] concerns the target T2, Estrogen receptor beta (Homo sapiens, UniProt Q92731). Briefly: Antagonist activity in ERbeta-transfected COS7 cells assessed as inhibition of E2-mediated PI(3)K activation. Particulars: COS-7. In kind it is functional, cell-based.
The test system of assay [5] is Mus musculus. In words: Inhibition of GPR30-mediated epithelial uterine cell proliferation in ovariectomized C57B16 mouse at 2.4 to 27 nM, sc relative to control. In kind it is functional, organism-based. As to conditions: Uterine epithelium.
The target in assay [6] is T2, Estrogen receptor beta. Briefly: Binding affinity to ERbeta receptor in COS7 cells by competitive binding assay. It is filed as cell-based, COS-7.
In assay [7] the test system is Mus musculus. Briefly: Inhibition of G1-induced GPR30-mediated epithelial uterine cell proliferation in sc dosed ovariectomized C57B16 mouse. In kind it is functional, organism-based. As to conditions: Uterine epithelium.
Assay [8] has as its system Mus musculus. In words: Inhibition of estrogen-induced GPR30-mediated epithelial uterine cell proliferation in sc dosed ovariectomized C57B16 mouse. In kind it is functional, Uterine epithelium.

T2 sequence (Q92731 whole entry): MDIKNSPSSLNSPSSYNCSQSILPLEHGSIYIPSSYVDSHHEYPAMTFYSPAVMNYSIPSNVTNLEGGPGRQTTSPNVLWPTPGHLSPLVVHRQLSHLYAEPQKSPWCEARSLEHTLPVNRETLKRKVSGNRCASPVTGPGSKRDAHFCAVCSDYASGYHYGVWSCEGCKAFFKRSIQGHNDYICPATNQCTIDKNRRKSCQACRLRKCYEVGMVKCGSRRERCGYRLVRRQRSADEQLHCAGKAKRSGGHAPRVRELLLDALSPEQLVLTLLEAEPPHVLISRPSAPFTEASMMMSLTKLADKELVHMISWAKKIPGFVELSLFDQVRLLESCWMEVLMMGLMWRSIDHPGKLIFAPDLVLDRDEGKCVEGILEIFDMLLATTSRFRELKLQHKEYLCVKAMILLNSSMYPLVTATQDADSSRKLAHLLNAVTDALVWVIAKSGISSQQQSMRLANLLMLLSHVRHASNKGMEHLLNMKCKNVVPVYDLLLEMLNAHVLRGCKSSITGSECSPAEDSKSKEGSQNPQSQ

`CC(=O)c1ccc2c(c1)[C@@H]1C=CC[C@@H]1[C@H](c1cc3c(cc1Br)OCO3)N2`: the outcome in assay [1] was inactive.
As usually defined, the Ki is a measure of affinity in units of concentration, obtained from inhibition or displacement. As for `Brc1cc2c(cc1[C@@H]1Nc3ccccc3[C@@H]3C=CC[C@@H]31)OCO2`, the outcome in assay [2], in assay [3], in assay [4] and in assay [5] was inactive. In assay [6], this compound had a Ki above 10 µM. The inhibition entry in assay [7] is “Active; Dose-dependent effect”. For the same compound, the “inhibition (INH)” value in assay [8] is recorded as 50%.

The values are drawn from ChEMBL document CHEMBL1212719, “In vivo effects of a GPR30 antagonist” (Nat Chem Biol, 2009).
